Key:
DNA-PK pathway [1] = test: Dose-dependent responses of DNA-PK pathway members in HCT 116 cells (FIG. 2); format: cell-based; conditions: H2AX, c-Abl, p53, p73, p21, caspase-9, caspase-3
Description: (§1) This damage impedes the ability of the cell to synthesize DNA and lengthens the time the cell spends in the S phase. […] When the DNA damage is sufficiently severe such that the double-strand breaks cannot be repaired through non-homologous end joining (NHEJ), the cell rapidly enters apoptosis. Some cells are able to reach the G2 phase but are subsequently arrested (mediated by cdc2/cyclin B) because the cells are too damaged to enter into the M phase and also eventually becomes apoptotic.

various cells = test: Cytotoxicity of SNS-595 in various cells; format: cell-based
Description: SNS-595 is a cell cycle inhibitor and arrests cells at the G2 interface. Initially, the activity of SNS-595 was believed due to topoisomerase II inhibition.
As shown by FIG. 1, ATM, ATR, and DNA-PK are three central DNA sensors/effectors that depending on the level of DNA damage that is detected within an individual cell, direct the cell into one of several outcomes including DNA repair, G2 arrest or apoptosis.

non-proliferating cells = test: Cytotoxicity to non-proliferating cells; format: cell-based; conditions: doses cytotoxic to proliferating cells
Description: as §1, with “Treatment with SNS-595 results in an increase in the number of double-strand DNA breaks that form during the S phase. This” for “This”

[2] = Pharmacokinetics of SNS-595 in cancer patients; format: in vivo, human
Description: SNS-595 was administered to enrolled patients for up to six cycles. A cycle is defined as a three-week period, with SNS-595 administered on the first day of each cycle (day 0), followed by at least 21 days of observation. SNS-595 was administered to cohorts of at least 3 patients and dose escalation occurred by sequential cohort.

[3] = tested on: stable variant of HCT-116 cells; test: Sensitivity of SNS-595-resistant HCT-116 variant; format: cell-based; conditions: cells with induced resistance
Description: Consistent with this mechanism, cells with induced resistance to SNS-595 also have alterations in the DNA-PK pathway. […] Conversely, decreased levels of DNA-PK or its activity (e.g. in the presence of an inhibitor) is associated with an increased sensitivity to SNS-595.

DNA-PK pathway [4] = test: Pharmacodynamic study, HCT116 xenograft tumors, Western blots (FIG. 3); format: in vivo; conditions: nu/nu mice, IV bolus 20 or 40 mg/kg, 1-24 hours post dose
Description: Nu/nu mice (ca. 25 grams) were injected with HCT116 cells (which were obtained from the ATCC) in the hind flank at 5 million cells with 50% matrigel (Becton-Dickinson). Tumors were allowed to grow to 400 mm^3. Xenograft bearing animals were then given either an IV bolus injection of SNS-595 (20 or 40 mg/kg) in the tail vein or a saline vehicle. At prescribed time points (1, 2, 4, 8, 16, and 24 hours post dose), animals were anesthetized with CO2, blood was taken via terminal cardiac puncture, and animals were sacrificed. Tumors were excised, pulverized using liquid nitrogen-cooled mortar and pestle, and flash-frozen in liquid nitrogen. Tumor lysates were made from pulverized samples by addition of lysis buffer. The protein concentrations of the DNA-PK pathway members were determined by Western blots. Approximately 25 micrograms of protein was loaded per lane on an SDS-PAGE gel. Proteins were separated by gel electrophoresis, blotted onto nitrocellulose membranes, and detected using the following antibodies: H2AX, phosphorylated at S139 (Cell Signaling, catalog no. 2577L); p53, phosphorylated at S15 (Cell Signaling, catalog no. 9284S); p53, phosphorylated at S37 (Cell Signaling, catalog no. 9289S); p21 (Cell Signaling, catalog no. 2946); cdc2, phosphorylated at Y15 (Calbiochem, catalog no. 219437); cyclin B (Santa Cruz, catalog no.sc-594 (H-20)); p73, phosphorylated at […] […]

For `CN[C@H]1CN(c2ccc3c(=O)c(C(=O)O)cn(-c4nccs4)c3n2)C[C@@H]1OC` [SNS-595, (+)-1,4-dihydro-7-[(3S,4S)-3-methoxy-4-(methylamino)-1-pyrrolidinyl]-4-oxo-1-(2-thiazoyl)-1,8-naphthyridine-3-carboxylic acid], the “activation of DNA-PK mediated repair and apoptotic machinery” value (DNA-PK pathway [1]) was “activates, in a dose dependent manner”, the EC50 (various cells) was 0.2 to 0.3 µM and the “difference in potency, cell EC50 versus biochemical inhibition of topoisomerase II” value (various cells) was “at least a ten-fold difference”. For the same compound, the “EC50 in caffeine treated cells (G2 arrest abrogated) versus untreated cells” value (various cells; caffeine inhibits ATM and ATR) was “essentially no difference in EC50 values”, the “activity in 2-deoxyglucose treated cells versus untreated cells” value (various cells; topoisomerase II levels modulated with 2-deoxyglucose) was “essentially no difference in activity” and the “lethality to non-proliferating cells” value (non-proliferating cells) was “non-lethal”. For the same compound, the “relation of dose with AUC∞” value ([2]; dose escalation by cohort) was “linear”, the MRT inf ([2]; human, intravenous, plasma, dose 3 mg/m2, mean, read-out: MRTINF_obs) was 22 h and the MRTINF_obs ([2]; plasma, dose 6 mg/m2, mean) was 29.05 h. For the same compound, the C0 ([2]; plasma, dose 12 mg/m2, mean) was 2888.66 ng/mL, the MRTINF_obs ([2]; plasma, dose 12 mg/m2, mean) was 23.67 h and the “sensitivity to SNS-595 relative to HCT-116 cells” value [3] was “approximately ten fold less sensitive”. The “levels of DNA-PK pathway members in tumors” value (DNA-PK pathway [4]) was “activated”.

From patent publication US7968565B2, “Therapeutic combinations comprising (+)-1,4-dihydro-7-[(3S,4S)-3-methoxy-4-(methylamino)-1-pyrrolidinyl]-4-oxo-1-(2-thiazolyl)-1,8-naphthyridine-3-carboxylic acid” (Sunesis Pharmaceuticals, Inc., priority 2004, dated 2011)
